In ChEMBL document CHEMBL3526136, “Structure and function of cytochromes P450 2B: from mechanism-based inactivators to X-ray crystal structures and back” (Drug Metab Dispos, 2011):
pKd: −log10 of the molar value.

Biological target: Cytochrome P450 2B4 (Oryctolagus cuniculus) (UniProt P00178)
Experiment: Binding affinity to C-terminal His4-tagged CYP2B4 dH/H226Y mutant (rabbit) after 2 hrs by isothermal titration calorimetric analysis

pKd	Structure (SMILES)
6.52	Clc1ccc(-n2ccnc2)cc1
6.52	c1ccc(COCCn2ccnc2)cc1
6.52	Clc1ccc(-c2cnc[nH]2)cc1

Structure (SMILES)	pKd
c1ccc(Cn2ccnc2)cc1 [BENZYLIMIDAZOLE]	6.52
c1ccc(-n2ccnc2)cc1	6.52
